Earlier results, collected in US4686282A, “Immunotherapeutic polypeptide agents which block immune complex binding to immunoglobulin Fc receptors” (Immunetech, Inc., priority 1983, dated 1987).
Ends that are not written are not given here.

Legend:
C1 = C1 (Homo sapiens, UniProt P02745+P02746+P02747); conditions: compared with intact monomeric IgG; Prystowsky et al. 1981, Lukas et al. 1981
[1] = tested on: local cutaneous allergic reaction (Prausnitz-Kustner); conditions: Hamburger 1975
[2] = humans, injection by the subcutaneous route
[3] = molecular target: T1, IgE Fc receptor of human basophils (Homo sapiens, UniProt P12319); conditions: Plummer et al. 1983
T1 construct: host or cells: human basophils
T1 sequence (P12319 26-257): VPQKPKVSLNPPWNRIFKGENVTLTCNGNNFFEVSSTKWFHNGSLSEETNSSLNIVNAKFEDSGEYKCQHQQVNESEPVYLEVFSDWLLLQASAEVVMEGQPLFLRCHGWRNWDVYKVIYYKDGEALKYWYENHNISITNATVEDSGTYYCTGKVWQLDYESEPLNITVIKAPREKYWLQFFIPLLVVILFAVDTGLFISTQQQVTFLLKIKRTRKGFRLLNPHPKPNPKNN
T1 sequence (Q01362 1-244 partner): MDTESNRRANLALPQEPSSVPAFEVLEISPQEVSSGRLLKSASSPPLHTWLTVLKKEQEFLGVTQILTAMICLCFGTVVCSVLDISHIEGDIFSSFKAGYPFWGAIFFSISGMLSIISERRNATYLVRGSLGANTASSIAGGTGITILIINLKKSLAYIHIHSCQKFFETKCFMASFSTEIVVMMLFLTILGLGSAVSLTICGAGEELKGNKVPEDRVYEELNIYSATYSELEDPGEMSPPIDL
T1 sequence (P30273 19-86 partner): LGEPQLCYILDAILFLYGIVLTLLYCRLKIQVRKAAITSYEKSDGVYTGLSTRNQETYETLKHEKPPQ

[4] = tested on: human and rodent mast cells; conditions: Stanworth et al. 1979
[5] = tested on: human monocyte IgG Fc receptors
lymphocytes = conditions: Morgan, Huguli and Weigle 1982
[6] = tested on: granulocytes, monocytes and macrophages; conditions: in vitro; literature

C1, sequence (P02745 23-245): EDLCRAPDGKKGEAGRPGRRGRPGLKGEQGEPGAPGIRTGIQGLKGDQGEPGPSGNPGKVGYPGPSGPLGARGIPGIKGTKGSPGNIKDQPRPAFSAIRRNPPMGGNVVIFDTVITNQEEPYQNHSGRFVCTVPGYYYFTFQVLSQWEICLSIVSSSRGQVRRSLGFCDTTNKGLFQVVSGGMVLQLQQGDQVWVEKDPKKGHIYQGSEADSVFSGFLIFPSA
C1, sequence (P02746 28-253): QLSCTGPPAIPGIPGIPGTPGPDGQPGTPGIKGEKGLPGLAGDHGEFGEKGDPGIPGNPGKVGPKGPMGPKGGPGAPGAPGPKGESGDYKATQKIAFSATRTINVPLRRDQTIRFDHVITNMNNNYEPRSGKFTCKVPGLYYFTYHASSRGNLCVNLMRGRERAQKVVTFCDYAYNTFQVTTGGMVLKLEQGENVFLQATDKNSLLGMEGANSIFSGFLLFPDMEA
C1, sequence (P02747 29-245): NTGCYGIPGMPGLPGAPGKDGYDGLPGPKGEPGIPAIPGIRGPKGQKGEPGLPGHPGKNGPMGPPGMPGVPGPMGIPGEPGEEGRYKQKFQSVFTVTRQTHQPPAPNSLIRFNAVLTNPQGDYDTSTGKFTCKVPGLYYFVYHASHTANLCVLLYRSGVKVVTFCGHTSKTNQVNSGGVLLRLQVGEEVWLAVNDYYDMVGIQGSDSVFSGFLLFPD
C1, sequence (P00736 18-705 partner): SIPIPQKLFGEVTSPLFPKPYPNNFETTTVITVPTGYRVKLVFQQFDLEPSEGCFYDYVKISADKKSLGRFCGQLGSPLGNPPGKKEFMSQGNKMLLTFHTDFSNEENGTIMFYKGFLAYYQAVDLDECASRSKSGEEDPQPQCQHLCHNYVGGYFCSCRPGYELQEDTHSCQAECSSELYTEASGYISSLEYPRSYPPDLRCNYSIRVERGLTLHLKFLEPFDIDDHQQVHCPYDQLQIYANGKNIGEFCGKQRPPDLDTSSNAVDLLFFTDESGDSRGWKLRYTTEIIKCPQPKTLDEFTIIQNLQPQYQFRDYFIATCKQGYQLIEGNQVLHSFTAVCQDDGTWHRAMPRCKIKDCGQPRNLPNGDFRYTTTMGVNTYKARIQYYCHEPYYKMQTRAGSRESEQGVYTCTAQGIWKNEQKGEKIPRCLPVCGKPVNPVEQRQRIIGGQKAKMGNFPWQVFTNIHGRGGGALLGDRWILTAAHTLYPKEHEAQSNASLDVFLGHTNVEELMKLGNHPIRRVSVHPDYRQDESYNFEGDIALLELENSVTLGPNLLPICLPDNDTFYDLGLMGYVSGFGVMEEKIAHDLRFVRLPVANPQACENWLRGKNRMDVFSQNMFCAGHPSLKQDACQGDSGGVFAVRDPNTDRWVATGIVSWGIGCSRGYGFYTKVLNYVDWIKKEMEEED
C1, sequence (P09871 16-688 partner): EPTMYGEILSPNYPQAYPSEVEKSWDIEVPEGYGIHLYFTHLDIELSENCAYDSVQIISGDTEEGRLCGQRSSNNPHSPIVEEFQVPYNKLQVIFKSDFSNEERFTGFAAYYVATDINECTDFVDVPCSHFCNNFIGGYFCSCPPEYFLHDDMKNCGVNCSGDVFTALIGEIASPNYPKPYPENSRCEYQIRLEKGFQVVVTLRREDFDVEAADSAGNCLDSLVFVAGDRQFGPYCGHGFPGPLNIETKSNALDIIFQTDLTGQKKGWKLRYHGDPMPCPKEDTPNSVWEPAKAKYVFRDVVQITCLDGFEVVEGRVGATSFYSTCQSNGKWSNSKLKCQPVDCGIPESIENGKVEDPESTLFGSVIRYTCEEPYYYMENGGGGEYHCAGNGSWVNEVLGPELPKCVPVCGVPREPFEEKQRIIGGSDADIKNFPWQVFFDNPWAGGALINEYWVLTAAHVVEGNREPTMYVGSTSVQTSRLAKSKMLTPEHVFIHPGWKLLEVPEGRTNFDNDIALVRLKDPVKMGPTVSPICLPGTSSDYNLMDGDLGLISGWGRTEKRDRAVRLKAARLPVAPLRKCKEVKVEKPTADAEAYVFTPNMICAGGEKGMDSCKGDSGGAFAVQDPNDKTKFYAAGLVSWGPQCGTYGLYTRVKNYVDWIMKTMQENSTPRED

Substance: Ac-Phe-Asn-Trp-Tyr-Val (Ac-FNWYV)
- inhibitors of C1-mediated hemolysis (C1): less active

Substance: Asp-Ser-Asp-Pro-Arg (DSDPR; printed: Asp-Ser-Asp-Pro-Arg)
- inhibit a local cutaneous allergic reaction (Prausnitz-Kustner) [1]: approximately 90%
- inhibit systemic allergic disease [2]: inhibit systemic allergic disease
- block human IgE binding to basophil IgE Fc receptors [3]: up to 70%

Substance: FNWYVDGVQVHNAKTK
- inhibitors of C1-mediated hemolysis (C1): less active

Substance: GVQVHNAKTK
- inhibitors of C1-mediated hemolysis (C1): approximately as active as inhibitors as intact monomeric IgG

Substance: PRKTKGSGFFVF
- degranulation of human and rodent mast cells [4]: able to cause degranulation

Substance: QYDSTYR
- block IgG binding to human monocyte IgG Fc receptors ([5]; Ratcliffe and Stanworth 1982): slightly block

Substance: TISKAKGQPREPQVYTLPSREEM
- nonspecific activation of lymphocytes (lymphocytes): ability to nonspecifically activate lymphocytes

Substance: Thr-Lys-Pro-Arg (TKPR; printed: Thr-Lys-Pro-Arg) [Tuftsin]
- inhibitors of C1-mediated hemolysis (C1): less active
- phagocytosis stimulating ability [6]: active at nanomolar concentrations
- inhibits human IgG binding to human monocyte IgG Fc receptors ([5]; Ratcliffe and Stanworth 1982 and ourselves): competitively inhibits

Substance: Val-Gln-Val-His-Asn-Ala-Lys-Thr-Lys-Pro-Arg-OH (VQVHNAKTKPR-OH)
- inhibitors of C1-mediated hemolysis (C1): approximately as active as inhibitors as intact monomeric IgG
